Experimental data as given in patent publication US7115633B2, “Benzosuberonylpiperdine compounds as analgesics” (GlaxoSmithKline S.p.A., priority 2000, dated 2006).

melting point [°C] | SMILES
> 250 | Cc1cccc(C2CCN(C[C@H]3CCc4c(Br)cccc4[C@H](O)C3)CC2)c1.Cl (racemic)
> 250 | Cc1cccc(C2CCN(C[C@@H]3CCc4c(C)cccc4[C@H](O)C3)CC2)c1.Cl (racemic)

The next lines start with the molecule.

SMILES | melting point [°C]
Cl.O[C@@H]1C[C@H](CN2CCC(c3ccccc3Cl)CC2)CCc2c(F)cccc21 (racemic) | 245 to 247
Cc1ccccc1C1CCN(CC2CCc3c(F)cccc3C(O)C2)CC1.Cl (racemic) | 231 to 233
Cc1cccc2c1CC[C@@H](CN1CCC(c3ccccc3Cl)CC1)C[C@H]2O.Cl (racemic) | > 250
